Holding throughout (format): cell-based
One assay relates to DU-145. Briefly: SRB anticancer activity screening, DU-145. Further details: Inhibition % for cancer cells DU-145: dose or concentration left out as unconfirmed. The note with it: DU-145 human prostate cancer, 48 hours. How it is done: (§1) A-549 (human lung carcinoma), HT-29 (human colon adenocarcinoma), DU145 (human prostate cancer), SK-MEL-2 (human malignant melanoma) and SK-OV-3 (human ovary malignant ascites) cells were used to evaluate the anticancer activity of the test compounds. All the cancer cells are all tumors cells derived from human and were acquired from the Korean Cell Line Bank. RP MI 1640 medium containing 10% fetal bovine serum was used as a culture medium. Cell culturing was performed in a constant-temperature, constant-humidity incubator (37° C., 5% CO2). Subculturing was performed once in 3 days, using 0.25% trypsin-1 mM EDTA.
(§2) The sulforhodamine B ([…]) assay, which was developed in 1989 by the National Cancer Institute to measure in vitro anticancer activity of drugs, was employed.
(§3) The subcultured cells were transferred using trypsin-EDTA solution to a 96-well microplate, at 5×10^3 cells per well, and then cultured in a CO2 incubator for 24 hours. After removing the medium and adding a solution of the test compound (100 μL) diluted 4-fold, the cells were cultured for 48 hours. […] After completely lysing the cells by adding 10 mM Trizma base (pH 10.3, 200 μL) to each well, absorbance was measured at 520 nm.
(§4) In order to evaluate the activity of the test compound for the cancer cells, GI50 was calculated according to Equation 1 or 2. […]
(§5) Then, IC50 value was calculated from the inhibitory concentration.

Another assay relates to A375P. Briefly: SRB anticancer activity screening, A375P. Further details: Inhibition % for cancer cells A375P: dose or concentration left out as unconfirmed. To be noted: A375P human melanoma cancer, 48 hours.
The subject of a further assay is HT-29. Briefly: SRB anticancer activity screening, HT-29. To be noted: HT-29 human colon adenocarcinoma, 48 hours. Also on record: Inhibition % for cancer cells HT-29: dose or concentration left out as unconfirmed. How it is done: as §1, §2, §3, §4, §5
Another assay relates to HCT-116. Briefly: SRB anticancer activity screening, HCT-116. Further details: Inhibition % for cancer cells HCT-116: dose or concentration left out as unconfirmed. The note with it: HCT-116 human colon cancer, 48 hours.

On to `Cc1ccc(N2CCN(CCC(=O)n3nc(N)c4c3C(=O)N(Cc3ccccc3)CC4)CC2)c(C)c1` [Compound 17, 3-amino-1-[{4-(2,4-dimethylphenyl)piperazin-1-yl}propanoyl]-6-N-benzyl-4,5,6,7-tetrahydro-1H-pyrazolo[3,4-c]pyridin-7-one], for which the IC50 was 0.4 ± 0.02 µM with DU-145 (read-out: IC50 (μM) for cancer cells DU-145), 0.34 ± 0.03 µM with A375P (read-out: IC50 (μM) for cancer cells A375P), 0.15 ± 0.01 µM with HT-29 (read-out: IC50 (μM) for cancer cells HT-29) and 0.34 ± 0.01 µM in the assay with HCT-116 (read-out: IC50 (μM) for cancer cells HCT-116).

`Cc1ccc(N2CCc3c(N)nn(C(=O)CCN4CCN(c5ccc(Cl)cc5)CC4)c3C2=O)cc1` [Compound 9, 3-amino-1-[{4-(4-chlorophenyl)piperazin-1-yl}propanoyl]-6-N-(p-tolyl)-4,5,6,7-tetrahydro-1-H-pyrazolo[3,4-c]pyridin-7-one]: the “Inhibition % for cancer cells DU-145” value in the assay with DU-145 worked out at 80.02%. Moreover, the “Inhibition % for cancer cells A375P” value with A375P turned out to be 95.03%. Moreover, the “Inhibition % for cancer cells HT-29” value with HT-29 worked out at 90.54%. Moreover, in the assay with HCT-116, the “Inhibition % for cancer cells HCT-116” value was 92.19%.

The values above are taken from patent US8383631B2, “1,6-disubstituted-3-amino-4,5,6,7-tetrahydro-1H-pyrazolo[3,4-C]pyridin-7-one compounds and preparation thereof” (Korea Institute of Science and Technology, priority 2010, dated 2013).
